Data from patent US20070128217A1 (priority 2003, published 2007).

Assays:
[1] = system: recombinant human anti-SARS-CoV antibody 03-018; format: binding; parameters: Binding of antibody 03-018 to linear peptides of the N protein of SARS-CoV Urbani / Binding of antibody 03-018 to looped/cyclic peptides of the N protein of SARS-CoV Urbani: unit not given here
[2] = system: control sera (pooled serum of ten healthy LUMC hospital workers; commercial negative donor pooled serum from the Dutch bloodbank); format: binding, human; parameters: Binding of Control serum LUMC to linear peptides / Binding of Control serum Blood-bank to linear peptides / Binding of Control serum LUMC to looped peptides / Binding of Control Serum Blood-Bank to Looped peptides / Binding of Control serum LUMC to linear peptides of the protein M of SARS-CoV Urbani / Binding of Control serum Blood-bank to linear peptides of the protein M of SARS-CoV Urbani / Binding of Control serum LUMC to looped peptides of the protein M of SARS-CoV Urbani / Binding of Control Serum Blood-Bank to Looped peptides of the protein M of SARS-CoV Urbani: unit not given here
[3] = system: antibodies in sera from SARS patients (sera 1a, 1b, 2, 6, 37, 62, London, SARS-yellow, SARS-green); format: binding, human; parameters: Binding of serum 6 to linear peptides of protein X1 of SARS-CoV Urbani / Binding of serum 37 to linear peptides of protein X1 of SARS-CoV Urbani / Binding of serum 6 to looped/cyclic peptide (PEPSCAN-ELISA) / Binding of serum 37 to looped/cyclic peptide (PEPSCAN-ELISA) / Binding of serum 37 to looped/cyclic peptides of protein X1 of SARS-CoV Urbani / Binding of serum 6 to linear peptides of protein X2 / Binding of serum 37 to linear peptides of protein X2 / Binding of serum 37 to looped/cyclic peptides of protein X2 of SARS-CoV Urbani / Binding of serum 6 to linear peptides of protein M of SARS-CoV Urbani / Binding of serum 37 to linear peptides of protein M of SARS-CoV Urbani / Binding of serum 6 to looped/cyclic peptides of protein M of SARS-CoV Urbani / Binding of serum 37 to looped/cyclic peptides of protein M of SARS-CoV Urbani / Binding of serum 6 to linear peptides of protein X3 of SARS-CoV Urbani / Binding of serum 37 to linear peptides of protein X3 of SARS-CoV Urbani / Binding of serum 37 to looped/cyclic peptides of protein X3 of SARS-CoV Urbani / Binding of serum 6 to linear peptides of protein X4 of SARS-CoV Urbani / Binding of serum 37 to linear peptides of protein X4 of SARS-CoV Urbani / Binding of serum 37 to looped/cyclic peptides of protein X4 of SARS-CoV Urbani / Binding of serum 6 to linear peptides of protein X5 of SARS-CoV Urbani / Binding of serum 37 to linear peptides of protein X5 of SARS-CoV Urbani / Binding of serum 37 to looped/cyclic peptides of protein X5 of SARS-CoV Urbani / Binding of serum 6 to linear peptides of protein N of SARS-CoV Urbani / Binding of serum 37 to linear peptides of protein N of SARS-CoV Urbani / Binding of serum 6 to linear peptide (PEPSCAN-ELISA) / Binding of serum 1a to looped/cyclic peptides of protein N of SARS-CoV Urbani / Binding of serum 1b to looped/cyclic peptides of protein N of SARS-CoV Urbani / Binding of serum 2 to looped/cyclic peptides of protein N of SARS-CoV Urbani / Binding of serum 6 to looped/cyclic peptides of protein N of SARS-CoV Urbani / Binding of serum 37 to looped/cyclic peptides of protein N of SARS-CoV Urbani / Binding of serum 62 to looped/cyclic peptides of protein N of SARS-CoV Urbani / Binding of serum London to looped/cyclic peptides of protein N of SARS-CoV Urbani / Binding of serum SARS-green to looped/cyclic peptides of protein N of SARS-CoV Urbani: unit not given here
[4] = system: rabbit serum obtained by immunizing a rabbit with the SARS-CoV strain Frankfurt 1; format: binding; parameters: Binding of a rabbit serum to linear peptides / Binding of a rabbit serum to looped peptides / Rabbit serum linear peptides / Rabbit serum looped peptides / Binding of a rabbit serum to linear peptides of protein N of SARS-CoV Urbani (Rabbit serum linear peptides) / Binding of a rabbit serum to looped/cyclic peptides of protein N of SARS-CoV Urbani (Rabbit serum looped peptides): unit not given here

Row | Sequence | Binding of antibody 03-018 to linear peptides of the N protein of SARS-CoV Urbani [1] | Binding of antibody 03-018 to looped/cyclic peptides of the N protein of SARS-CoV Urbani [1] | Binding of Control Serum Blood-Bank to Looped peptides [2] | Binding of Control serum Blood-bank to linear peptides [2] | Binding of Control serum LUMC to linear peptides [2] | Binding of Control serum LUMC to looped peptides [2] | Binding of serum 1a to looped/cyclic peptides of protein N of SARS-CoV Urbani [3] | Binding of serum 1b to looped/cyclic peptides of protein N of SARS-CoV Urbani [3] | Binding of serum 2 to looped/cyclic peptides of protein N of SARS-CoV Urbani [3] | Binding of serum 6 to looped/cyclic peptides of protein N of SARS-CoV Urbani [3] | Binding of serum 37 to looped/cyclic peptides of protein N of SARS-CoV Urbani [3] | Binding of serum 62 to looped/cyclic peptides of protein N of SARS-CoV Urbani [3] | Binding of serum London to looped/cyclic peptides of protein N of SARS-CoV Urbani [3] | Binding of serum SARS-green to looped/cyclic peptides of protein N of SARS-CoV Urbani [3] | Binding of serum SARS-yellow to looped/cyclic peptides of protein N of SARS-CoV Urbani [3] | Recognition of the peptide by sera of SARS-CoV infected individuals, and form (linear, looped/cyclic) in which it is recognized [3] | Binding of a rabbit serum to linear peptides of protein N of SARS-CoV Urbani (Rabbit serum linear peptides) [4] | Binding of a rabbit serum to looped/cyclic peptides of protein N of SARS-CoV Urbani (Rabbit serum looped peptides) [4] | Binding of serum 1a to linear peptides of protein N of SARS-CoV Urbani [3] | Binding of serum 1b to linear peptides of protein N of SARS-CoV Urbani [3] | further results
1 | QTQGNFGDQDLIRQG | 0.1 | 0.2 | 0.8 | 0.9 | 0.9 | 0.7 | 0.5 | 0.4 | 0.5 | 0.3 | 0.9 | 0.9 | 0.6 | 0.4 | 0.8 | recognized in linear form | 0.1 | 0.6 |  |  | 
2 | QTVTKKSAAEASKKP | 0.1 | 0.2 | 0.5 | 0.8 | 0.9 | 0.5 | 0.3 | 0.2 | 0.4 | 0.2 | 0.5 | 0.3 | 0.3 | 0.0 | 0.2 | recognized in linear form | 0.2 | 0.3 |  |  | 
3 | RATRRVRGGDGKMKE | 0.1 | 0.2 | 0.4 | 0.8 | 0.7 | 0.3 | 0.2 | 0.1 | 0.2 | 0.1 | 0.5 | 0.2 | 0.2 | 0.0 | 0.3 |  | 0.2 | 0.2 | 0.2 | 0.1 | Binding of serum 2 to linear peptides of protein N of SARS-CoV Urbani [3]: 0.4; Binding of serum 6 to linear peptides of protein N of SARS-CoV Urbani [3]: 0.2; Binding of serum 37 to linear peptides of protein N of SARS-CoV Urbani [3]: 0.8; Binding of serum 62 to linear peptides of protein N of SARS-CoV Urbani [3]: 0.7; Binding of serum London to linear peptides of protein N of SARS-CoV Urbani [3]: 0.5; Binding of serum SARS-green to linear peptides of protein N of SARS-CoV Urbani [3]: 0.3; Binding of serum SARS-yellow to linear peptides of protein N of SARS-CoV Urbani [3]: 0.6
4 | RGGDGKMKELSPRWY | 0.1 | 0.2 | 0.6 | 0.6 | 0.6 | 0.6 | 0.3 | 0.2 | 0.4 | 0.3 | 0.5 | 0.4 | 0.4 | 0.3 | 0.4 |  | 0.1 | 0.4 | 0.2 | 0.1 | Binding of serum 2 to linear peptides of protein N of SARS-CoV Urbani [3]: 0.2; Binding of serum 6 to linear peptides of protein N of SARS-CoV Urbani [3]: 0.2; Binding of serum 37 to linear peptides of protein N of SARS-CoV Urbani [3]: 0.7; Binding of serum 62 to linear peptides of protein N of SARS-CoV Urbani [3]: 0.6; Binding of serum London to linear peptides of protein N of SARS-CoV Urbani [3]: 0.5; Binding of serum SARS-green to linear peptides of protein N of SARS-CoV Urbani [3]: 0.3; Binding of serum SARS-yellow to linear peptides of protein N of SARS-CoV Urbani [3]: 0.6
